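Step 1: Grow cells in 96-well plates. Step 2: Expose to compound for 48 hours at 5 concentrations. Step 3: Interpolate endpoints linearly; if unreached, use highest concentration. Abbreviation: GI50, concentration required for 50% inhibition of growth.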 Active and inactive are the calls of the source. No stated cut-off is given here; in the data, active = GI50 up to about 1.1 µM and inactive = higher.
Columns and labels:
Test in all cases: NCI tumour cell line growth inhibition, 48 h
[1] = tested on: SK-MEL-28
[2] = tested on: SW-620
[3] = tested on: SNB-75
[4] = tested on: UACC-62
[5] = tested on: HOP-62
[6] = tested on: HL-60
[7] = tested on: OVCAR-3
[8] = tested on: UO-31
[9] = tested on: LOX IMVI
[10] = tested on: HOP-92
[11] = tested on: U-251
[12] = tested on: SR
[13] = tested on: SF-295
[14] = tested on: SK-OV-3
[15] = tested on: EKVX
[16] = tested on: NCI/ADR-RES
[17] = tested on: SNB-19
[18] = tested on: MCF7
[19] = tested on: SF-539
[20] = tested on: NCI-H460

Row | Compound | GI50 [1] | GI50 [2] | GI50 [3] | GI50 [4] | GI50 [5] | GI50 [6] | GI50 [7] | GI50 [8] | GI50 [9] | GI50 [10] | GI50 [11] | GI50 [12] | GI50 [13] | GI50 [14] | GI50 [15] | GI50 [16] | GI50 [17] | GI50 [18] | GI50 [19] | GI50 [20]
1 | CCC1c2[nH]c3ccccc3c2C[C@H]2C(=O)NC(C)C(=O)N12 (stereo partly specified) | > 100 µM (inactive) | > 100 µM (inactive) | 23.7 µM (inactive) | > 100 µM (inactive) | > 100 µM (inactive) | > 100 µM (inactive) | > 100 µM (inactive) | > 100 µM (inactive) | > 100 µM (inactive) | > 100 µM (inactive) | > 100 µM (inactive) | > 100 µM (inactive) | > 100 µM (inactive) | > 100 µM (inactive) | > 100 µM (inactive) | > 100 µM (inactive) | > 100 µM (inactive) | > 100 µM (inactive) |  | 
2 | O=C1c2ccccc2C(=O)c2c1ccc(C(=O)O)c2-c1ccc2ccccc2c1 | 40.2 µM (inactive) | 29.4 µM (inactive) |  | 18.2 µM (inactive) | 32.2 µM (inactive) | 27.9 µM (inactive) | 18.2 µM (inactive) | 21.2 µM (inactive) | 18.9 µM (inactive) |  | 21.9 µM (inactive) | 16.6 µM (inactive) | 28.5 µM (inactive) | 31 µM (inactive) | 20.6 µM (inactive) | 30.8 µM (inactive) | 34.7 µM (inactive) | 3.42 µM (inactive) | 25.8 µM (inactive) | 30.1 µM (inactive)
3 | COc1cc2c(c(N)c1OC)C(=O)/C(=C/c1cc(C)c(O)c(C)c1)C2 |  | < 0.01 µM (active) |  | < 0.01 µM (active) | < 0.0176 µM (active) | < 0.01 µM (active) | < 0.01 µM (active) |  | < 0.01 µM (active) | > 100 µM (inactive) | < 0.0164 µM (active) | < 0.01 µM (active) | 0.0562 µM (active) | < 0.01 µM (active) | < 0.01 µM (active) | 0.0104 µM (active) | < 0.01 µM (active) | < 0.01 µM (active) | < 0.01 µM (active) | < 0.01 µM (active)
4 | CC(C)[Si](OC/C(=C/COC(C)(C)C)[C@H]1CC=C(C(=O)c2ccccc2N2CN(C)C(=O)N(C)C2)C1)(C(C)C)C(C)C | 6.22 µM (inactive) | 3.17 µM (inactive) | 14.1 µM (inactive) | 10.8 µM (inactive) | 16 µM (inactive) |  | 9.93 µM (inactive) | 11.1 µM (inactive) | 2.07 µM (inactive) | 9.73 µM (inactive) | 10.1 µM (inactive) | 2.14 µM (inactive) | 12.9 µM (inactive) | 15.6 µM (inactive) | 15.9 µM (inactive) | 16.4 µM (inactive) | 12.1 µM (inactive) | 4.47 µM (inactive) | 6.78 µM (inactive) | 12.6 µM (inactive)
5 | NC1CC(=O)c2c(Br)csc21 (stereo unspecified) | 25.9 µM (inactive) | 30.2 µM (inactive) | 96.2 µM (inactive) | 21.3 µM (inactive) | 49.8 µM (inactive) | 39.2 µM (inactive) | 50.6 µM (inactive) | 33 µM (inactive) |  |  | 10 µM (inactive) | 46.6 µM (inactive) |  | > 100 µM (inactive) | 67.6 µM (inactive) | > 100 µM (inactive) | 36.3 µM (inactive) | 49 µM (inactive) | 35.6 µM (inactive) | 41 µM (inactive)
6 | C[C@H]1CC[C@@H]2[C@@H](C)[C@H]3[C@H](C[C@H]4[C@@H]5CC=C6C[C@@H](O)CC[C@]6(C)[C@H]5CC[C@]34C)N2C1 | 47.1 µM (inactive) | 75.2 µM (inactive) |  | 43 µM (inactive) | 31.4 µM (inactive) | 17.5 µM (inactive) | > 100 µM (inactive) | 60.5 µM (inactive) | 36.1 µM (inactive) | 12.6 µM (inactive) | 31.8 µM (inactive) | 22.6 µM (inactive) | 40.6 µM (inactive) | > 100 µM (inactive) | 36.4 µM (inactive) | 54.7 µM (inactive) | 97.9 µM (inactive) | 38.5 µM (inactive) | 65.9 µM (inactive) | 37.9 µM (inactive)
7 | O=Cc1cn(CCCCCCCCCCCCn2cc(C=O)c3ccccc32)c2ccccc12 | > 100 µM (inactive) | > 100 µM (inactive) |  | > 100 µM (inactive) | > 100 µM (inactive) | 1.56 µM (inactive) | > 100 µM (inactive) | > 100 µM (inactive) | > 100 µM (inactive) | > 100 µM (inactive) | > 100 µM (inactive) | 11.7 µM (inactive) | 3.56 µM (inactive) | > 100 µM (inactive) | 7.53 µM (inactive) | 1.46 µM (inactive) | > 100 µM (inactive) | 2.62 µM (inactive) | > 100 µM (inactive) | > 10 µM (inactive)
8 | CS(=O)(=O)OCC1CCCCCCCCCCC12SCCCS2 (stereo unspecified) | > 100 µM (inactive) | > 100 µM (inactive) |  | > 100 µM (inactive) | > 100 µM (inactive) | > 100 µM (inactive) | > 100 µM (inactive) | > 100 µM (inactive) | > 100 µM (inactive) | > 100 µM (inactive) | > 100 µM (inactive) | > 100 µM (inactive) | > 100 µM (inactive) | > 100 µM (inactive) | > 100 µM (inactive) | > 100 µM (inactive) | > 100 µM (inactive) | > 100 µM (inactive) | > 100 µM (inactive) | > 100 µM (inactive)
9 | O=c1[nH]nc(NCCc2ccccc2)c2nnn(Cc3ccccc3)c12 | > 100 µM (inactive) |  | > 100 µM (inactive) |  | > 100 µM (inactive) | > 100 µM (inactive) | > 100 µM (inactive) | > 100 µM (inactive) | > 100 µM (inactive) |  | > 100 µM (inactive) | > 100 µM (inactive) | > 100 µM (inactive) |  | > 100 µM (inactive) | > 100 µM (inactive) | > 100 µM (inactive) | > 100 µM (inactive) |  | > 100 µM (inactive)
10 | Cc1nc(Cl)c2sc(=S)n(-c3ccc(F)cc3)c2n1 | 2.33 µM (inactive) | 3.7 µM (inactive) | 1.44 µM (inactive) | 11.8 µM (inactive) | 2.22 µM (inactive) | 7.16 µM (inactive) | 1.94 µM (inactive) | 1.69 µM (inactive) | 1.77 µM (inactive) | 14.4 µM (inactive) | 5.06 µM (inactive) | 1.39 µM (inactive) | 10.9 µM (inactive) | 13.2 µM (inactive) | 13.2 µM (inactive) | 6.56 µM (inactive) | 1.88 µM (inactive) | 2.84 µM (inactive) |  | 13.7 µM (inactive)
11 | CCc1cccc(C(C)C)c1NC(=O)C(=O)Nn1c(S)nc2ccccc2c1=O | > 100 µM (inactive) | > 100 µM (inactive) | > 100 µM (inactive) | > 100 µM (inactive) | > 100 µM (inactive) |  | > 100 µM (inactive) | > 100 µM (inactive) | > 100 µM (inactive) | > 100 µM (inactive) | > 100 µM (inactive) | 77.3 µM (inactive) | > 100 µM (inactive) | > 100 µM (inactive) | 37.8 µM (inactive) | 47.8 µM (inactive) |  | > 100 µM (inactive) | > 100 µM (inactive) | > 100 µM (inactive)
12 | O=C(O)CCC(=O)Nc1ccc2c(c1)S(=O)(=O)N(CC(=O)O)C2=O | > 100 µM (inactive) | > 100 µM (inactive) |  | > 100 µM (inactive) | > 100 µM (inactive) | > 100 µM (inactive) | > 100 µM (inactive) | > 100 µM (inactive) | > 100 µM (inactive) | > 100 µM (inactive) | > 100 µM (inactive) | > 100 µM (inactive) | > 100 µM (inactive) | > 100 µM (inactive) | > 100 µM (inactive) | > 100 µM (inactive) | > 100 µM (inactive) | > 100 µM (inactive) | > 100 µM (inactive) | > 100 µM (inactive)
13 | C/C1=C/C2OC(=O)C3(C)C2C(CC2(C)OC1=CC2=O)OC3(O)C(C)C (stereo unspecified) | 40.5 µM (inactive) | 23.7 µM (inactive) | > 61.1 µM (inactive) | 20.6 µM (inactive) | 41.6 µM (inactive) | 18.7 µM (inactive) | 31.2 µM (inactive) | 84.1 µM (inactive) | 31.4 µM (inactive) |  | 23.9 µM (inactive) | 22.6 µM (inactive) | 29.4 µM (inactive) | 46 µM (inactive) | 47.6 µM (inactive) | 59 µM (inactive) | 42.5 µM (inactive) | 43.7 µM (inactive) | 41.4 µM (inactive) | 42.5 µM (inactive)
14 | CC(O[Si](c1ccccc1)(c1ccccc1)C(C)(C)C)[C@H](NC(=O)OC(C)(C)C)C(=O)O (stereo partly specified) | 50 µM (inactive) | 29.4 µM (inactive) | 43.7 µM (inactive) |  | 49.8 µM (inactive) | 27.3 µM (inactive) |  | 33.9 µM (inactive) |  | 29.9 µM (inactive) | 33.1 µM (inactive) | 28.2 µM (inactive) | 19.8 µM (inactive) | 30.4 µM (inactive) | 33.5 µM (inactive) | 46.7 µM (inactive) | 36.1 µM (inactive) | 27.5 µM (inactive) |  | 55.6 µM (inactive)
15 | CON(C)C(=O)C(C)N(Cc1ccccc1)Cc1ccccc1 (stereo unspecified) | > 100 µM (inactive) | > 100 µM (inactive) | 36.9 µM (inactive) | 66.2 µM (inactive) | 23.3 µM (inactive) | 46.9 µM (inactive) | 88.3 µM (inactive) | 38.5 µM (inactive) |  | > 100 µM (inactive) | > 100 µM (inactive) | 69 µM (inactive) | > 100 µM (inactive) | 66.8 µM (inactive) | 65.8 µM (inactive) | 45.5 µM (inactive) | > 100 µM (inactive) | 58.3 µM (inactive) | > 100 µM (inactive) | 59 µM (inactive)
